# Data taken from ChEMBL document CHEMBL2417415, “Polyketides with New Delhi metallo-β-lactamase 1 inhibitory activity from Penicillium sp” (J Nat Prod, 2013).
# Calls of active or inactive are those of the source. No cut-off for these calls is given here.
# What was measured:
# Coxsackievirus B3 = test: Antiviral activity against Coxsackievirus B3 at 10 uM; type: functional, organism-based
# BGC-823 = test: Cytotoxicity assay against human BGC823 cells at 10 uM after 96 hrs by MTT assay; type: functional, cell-based
# HCT-8 = test: Cytotoxicity assay against human HCT8 cells at 10 uM after 96 hrs by MTT assay; type: functional, cell-based
# KETR3 = test: Cytotoxicity assay against human Ketr3 cells at 10 uM after 96 hrs by MTT assay; type: functional, cell-based
# MCF7 = test: Cytotoxicity assay against human MCF7 cells at 10 uM after 96 hrs by MTT assay; type: functional, cell-based
# Klebsiella pneumoniae [1] = test: Antibacterial activity against Klebsiella pneumoniae ATCC BAA-2146 at 10 uM after 24 hrs by spectrophotometry; type: functional, organism-based
# Influenza A virus [2] = test: Antiviral activity against influenza A virus A/Hanfang/359/95 (H3N2) infected in MDCK cells at 10 uM by Reed and Muench analysis; type: functional, organism-based
# A549 = test: Cytotoxicity assay against human A549 cells at 10 uM after 96 hrs by MTT assay; type: functional, cell-based
# Bel-7402 = test: Cytotoxicity assay against human Bel7402 cells at 10 uM after 96 hrs by MTT assay; type: functional, cell-based
# Influenza A virus [3] = test: Antiviral activity against influenza A virus A/FM/1/47 (H1N1) infected in MDCK cells at 10 uM by Reed and Muench analysis; type: functional, organism-based
# Klebsiella pneumoniae [4] = test: Antibacterial activity against Klebsiella pneumoniae ATCC BAA-2146 at 256 ug/mL after 24 hrs by spectrophotometry; type: functional, organism-based
# [5] = Inhibition of NDM-1 (unknown origin) expressed in Escherichia coli BL21 using meropenem as substrate compound preincubated for 15 min by spectrophotometry
# Klebsiella pneumoniae [6] = test: Antibacterial activity against Klebsiella pneumoniae ATCC BAA-2146 assessed as reduction in meropenem MIC at 128 ug/mL after 24 hrs by spectrophotometry; type: functional, organism-based
# Klebsiella pneumoniae [7] = test: Antibacterial activity against Klebsiella pneumoniae ATCC BAA-2146 after 24 hrs by spectrophotometry; type: functional; conditions: ATCC BAA-2146, 24 h
SMILES,Activity (Coxsackievirus B3),Activity (BGC-823),Activity (HCT-8),Activity (KETR3),Activity (MCF7),Activity (Klebsiella pneumoniae [1]),Activity (Influenza A virus [2]),Activity (A549),Activity (Bel-7402),Activity (Influenza A virus [3]),Activity (Klebsiella pneumoniae [4]),IC50 [5] [µM],Activity (Klebsiella pneumoniae [6]),MIC (Klebsiella pneumoniae [7]) [µg/mL]
C[C@H]1C[C@@H](O)[C@@H]2O[C@@H]2[C@H]1O,inactive,inactive,inactive,inactive,inactive,inactive,inactive,inactive,inactive,inactive,–,–,–,–
COc1c(O)cc2oc3cc(C)ncc3c(=O)c2c1C(=O)O,inactive,inactive,inactive,inactive,inactive,inactive,inactive,inactive,inactive,inactive,inactive,87.9,inactive,–
CC(=O)C[C@H](O)c1coc2cc(O)cc(C(=O)O)c2c1=O,inactive,inactive,inactive,inactive,inactive,inactive,inactive,inactive,inactive,inactive,inactive,94.9,inactive,–
O=C(O)CN(CCN(CC(=O)O)CC(=O)O)CC(=O)O [EDETIC ACID],–,–,–,–,–,–,–,–,–,–,–,< 0.1,–,–
C[C@H](CS)C(=O)N1CCC[C@@H]1C(=O)O [D-CAPTOPRIL],–,–,–,–,–,–,–,–,–,–,–,8,–,–
C[C@@H](O)[C@H]1C(=O)N2C(C(=O)O)=C(S[C@@H]3CN[C@H](C(=O)N(C)C)C3)[C@H](C)[C@H]12 [MEROPENEM],–,–,–,–,–,–,–,–,–,–,–,–,–,128
C[C@H](CS)C(=O)N1CCC[C@H]1C(=O)O [CAPTOPRIL],–,–,–,–,–,–,–,–,–,–,–,108,–,–
O=C(O)C[C@H](NC(=O)c1cc(=O)[nH]c2ccccc12)C(=O)O,inactive,inactive,inactive,inactive,inactive,inactive,inactive,inactive,inactive,inactive,–,–,–,–
